Reference: patent US11339130B1 (Blade Therapeutics, Inc., priority 2016, dated 2022)
Read-outs that look alike come from different tables or passages of the source.

Tests used:
[1] = system: Calpain activity in SH-SY5Y cells (SBDP-150); experiment: SH-SY5Y Spectrin western blot assay (SBDP-150 breakdown product, A23187-induced); format: cell-based; conditions: Homo sapiens, SH-SY5Y cells, read-out: SH-SY5Y Spectrin IC50
Human Calpain 9/NS1 = molecular target: T1, Human Calpain 9/NS1 (Homo sapiens, UniProt O14815); experiment: Calpain inhibition continuous fluorescence (FRET) assay, Human Calpain 9/NS1; format: biochemical; conditions: read-out: Human Calpain 9/NS1 IC50
T1 sequence (O14815 1-690): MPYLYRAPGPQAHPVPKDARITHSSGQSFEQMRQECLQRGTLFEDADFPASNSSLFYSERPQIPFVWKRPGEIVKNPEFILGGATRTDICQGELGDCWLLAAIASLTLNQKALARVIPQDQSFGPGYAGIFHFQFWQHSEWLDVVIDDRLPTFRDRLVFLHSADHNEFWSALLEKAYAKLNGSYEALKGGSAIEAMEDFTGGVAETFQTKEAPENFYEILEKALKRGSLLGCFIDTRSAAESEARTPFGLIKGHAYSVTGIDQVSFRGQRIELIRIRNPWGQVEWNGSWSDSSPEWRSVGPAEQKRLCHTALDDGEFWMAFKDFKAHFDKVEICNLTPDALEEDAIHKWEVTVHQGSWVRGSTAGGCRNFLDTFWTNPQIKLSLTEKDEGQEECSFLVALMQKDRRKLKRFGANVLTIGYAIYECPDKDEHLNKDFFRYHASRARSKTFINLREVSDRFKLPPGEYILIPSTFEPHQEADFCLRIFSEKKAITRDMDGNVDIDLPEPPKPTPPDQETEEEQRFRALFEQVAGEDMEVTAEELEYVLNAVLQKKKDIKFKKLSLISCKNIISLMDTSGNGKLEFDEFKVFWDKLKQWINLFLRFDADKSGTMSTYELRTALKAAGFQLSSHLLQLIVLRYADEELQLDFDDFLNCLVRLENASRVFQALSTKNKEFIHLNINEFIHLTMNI
T1 sequence (P04632 1-268 partner): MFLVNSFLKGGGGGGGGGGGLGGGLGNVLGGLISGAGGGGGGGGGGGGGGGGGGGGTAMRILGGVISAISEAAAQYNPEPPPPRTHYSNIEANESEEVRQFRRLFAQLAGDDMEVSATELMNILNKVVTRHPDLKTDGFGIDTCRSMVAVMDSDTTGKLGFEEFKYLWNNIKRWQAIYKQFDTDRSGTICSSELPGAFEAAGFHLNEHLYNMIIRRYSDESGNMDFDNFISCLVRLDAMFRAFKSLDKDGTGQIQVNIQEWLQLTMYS
How it was run: (§1)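 Inhibitors were preincubated with calpain in 50 mM Tris pH 7.5, 100 mM NaCl, 1 mM DTT at 25C. Reactions were started with 5-FAM/QXL 520 FRET peptide substrate plus CaCl2 and read at 490/520 nm for 10 min. IC50s came from 4-parameter fits of slope rates (1-5 min).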

[2] = system: Calpain activity in SH-SY5Y cells; experiment: SH-SY5Y + AMC fluorescence assay (Suc-LLVY-AMC substrate); format: cell-based; conditions: read-out: SH-SY5Y + AMC IC50
Human Calpain 1/NS1 = molecular target: T2, Human Calpain 1/NS1 (Homo sapiens, UniProt P07384); experiment: Calpain inhibition continuous fluorescence (FRET) assay, Human Calpain 1/NS1; format: biochemical; conditions: read-out: Human Calpain 1/NS1 IC50
T2 sequence (P07384 1-714): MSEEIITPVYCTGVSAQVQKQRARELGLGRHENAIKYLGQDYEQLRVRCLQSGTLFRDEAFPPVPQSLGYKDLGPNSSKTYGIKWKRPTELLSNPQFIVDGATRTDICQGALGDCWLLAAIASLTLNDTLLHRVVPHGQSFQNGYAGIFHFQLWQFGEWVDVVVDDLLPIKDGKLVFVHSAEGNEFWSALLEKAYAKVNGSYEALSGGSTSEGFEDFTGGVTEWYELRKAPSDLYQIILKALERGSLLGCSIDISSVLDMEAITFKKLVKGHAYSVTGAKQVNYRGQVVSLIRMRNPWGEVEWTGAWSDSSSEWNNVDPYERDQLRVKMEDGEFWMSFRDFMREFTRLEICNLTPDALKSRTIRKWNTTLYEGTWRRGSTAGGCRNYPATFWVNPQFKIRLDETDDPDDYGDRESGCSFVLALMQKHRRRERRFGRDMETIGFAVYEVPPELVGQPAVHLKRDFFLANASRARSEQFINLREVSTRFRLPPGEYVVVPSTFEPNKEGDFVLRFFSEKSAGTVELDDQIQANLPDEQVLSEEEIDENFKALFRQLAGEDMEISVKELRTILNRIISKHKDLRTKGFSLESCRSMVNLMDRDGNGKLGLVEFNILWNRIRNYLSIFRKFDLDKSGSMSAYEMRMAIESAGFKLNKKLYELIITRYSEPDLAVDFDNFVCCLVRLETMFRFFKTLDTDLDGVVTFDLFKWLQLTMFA
T2 sequence (P04632 1-268 partner): T1 sequence (P04632 1-268 partner)
How it was run: as §1

Human Calpain 2/NS1 = molecular target: T3, Human Calpain 2/NS1 (Homo sapiens, UniProt P17655); experiment: Calpain inhibition continuous fluorescence (FRET) assay, Human Calpain 2/NS1; format: biochemical; conditions: read-out: Human Calpain 2/NS1 IC50
T3 sequence (P17655 1-700): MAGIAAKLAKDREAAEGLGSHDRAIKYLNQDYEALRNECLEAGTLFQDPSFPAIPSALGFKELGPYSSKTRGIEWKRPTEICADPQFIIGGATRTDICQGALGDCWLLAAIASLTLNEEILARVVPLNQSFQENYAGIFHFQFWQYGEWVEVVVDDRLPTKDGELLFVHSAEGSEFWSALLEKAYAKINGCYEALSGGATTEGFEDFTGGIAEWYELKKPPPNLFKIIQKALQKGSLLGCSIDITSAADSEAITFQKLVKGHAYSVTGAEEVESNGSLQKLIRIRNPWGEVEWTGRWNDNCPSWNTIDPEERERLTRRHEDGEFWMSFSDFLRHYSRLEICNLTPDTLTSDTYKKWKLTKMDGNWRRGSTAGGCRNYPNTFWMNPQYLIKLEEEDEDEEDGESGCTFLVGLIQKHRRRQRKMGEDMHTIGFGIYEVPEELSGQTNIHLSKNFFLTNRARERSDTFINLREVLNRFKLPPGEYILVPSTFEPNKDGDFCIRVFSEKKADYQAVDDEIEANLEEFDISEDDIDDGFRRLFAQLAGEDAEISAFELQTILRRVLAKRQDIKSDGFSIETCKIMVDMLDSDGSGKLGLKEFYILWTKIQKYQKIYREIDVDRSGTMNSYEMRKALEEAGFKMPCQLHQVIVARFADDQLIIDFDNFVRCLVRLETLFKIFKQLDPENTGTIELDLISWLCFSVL
T3 sequence (P04632 1-268 partner): T1 sequence (P04632 1-268 partner)
How it was run: as §1

[3] = A23187-induced SBDP-150, western blot
[4] = Column D, A23187-induced SBDP-150

Row | IC50 [1, 3] | IC50 (Human Calpain 9/NS1) | IC50 [2] | IC50 (Human Calpain 1/NS1) | IC50 (Human Calpain 2/NS1) | IC50 [1, 4] | IC50 (Human Calpain 9/NS1; Column C) | IC50 ([2]; Column E) | IC50 (Human Calpain 1/NS1; Column A) | IC50 (Human Calpain 2/NS1; Column B) | Structure (SMILES)
1 | < 10 µM | < 3 µM | < 10 µM | < 3 µM | < 3 µM | – | – | – | – | – | NC(=O)C(=O)C(Cc1ccccc1)NC(=O)c1cn(C(F)F)nc1-c1cccc2c1OC(F)(F)O2 (stereo not drawn) [Compound 546, N-(4-amino-3,4-dioxo-1-phenylbutan-2-yl)-3-(2,2-difluorobenzo[d][1,3]dioxol-4-yl)-1-(difluoromethyl)-1H-pyrazole-4-carboxamide]
2 | > 25 µM | > 10 µM | > 25 µM | > 10 µM | > 10 µM | – | – | – | – | – | Cc1nc(-c2ccccc2)c(C(=O)N[C@@H](Cc2ccccc2)C(O)C(N)=O)o1 (stereo partly drawn) [Compound 360, N-((2S)-4-amino-3-hydroxy-4-oxo-1-phenylbutan-2-yl)-2-methyl-4-phenyloxazole-5-carboxamide]
3 | – | – | – | – | – | < 10 µM | < 3 µM | < 10 µM | < 3 µM | < 3 µM | Cc1cc(C(=O)N[C@@H](Cc2ccccc2)C(=O)C(N)=O)n(-c2ccccc2)n1 [Compound 276, (S)—N-(4-amino-3,4-dioxo-1-phenylbutan-2-yl)-3-methyl-1-phenyl-1H-pyrazole-5-carboxamide]
4 | > 25 µM | < 3 µM | > 25 µM | < 3 µM | < 3 µM | – | – | – | – | – | Cc1c(C(=O)NC(Cc2ccccc2)C(=O)C(N)=O)c(-c2ccccc2)nn1C (stereo not drawn) [Compound 583]
5 | – | – | – | – | – | 10 to 25 µM | < 3 µM | < 10 µM | < 3 µM | < 3 µM | Cc1cc(C(=O)N[C@@H](Cc2ccccc2)C(=O)C(N)=O)n(-c2ccncn2)n1 [Compound 245, (S)—N-(4-amino-3,4-dioxo-1-phenylbutan-2-yl)-3-methyl-1-(pyrimidin-4-yl)-1H-pyrazole-5-carboxamide]
6 | < 10 µM | < 3 µM | < 10 µM | < 3 µM | < 3 µM | – | – | – | – | – | NC(=O)C(=O)[C@H](Cc1ccccc1)NC(=O)c1nsnc1-c1ccccc1 [Compound 376, (S)—N-(4-amino-3,4-dioxo-1-phenylbutan-2-yl)-4-phenyl-1,2,5-thiadiazole-3-carboxamide]
7 | – | – | – | – | – | 10 to 25 µM | < 3 µM | > 25 µM | < 3 µM | < 3 µM | Cn1cc(C(=O)N[C@@H](Cc2ccccc2)C(=O)C(N)=O)c(-c2cccnc2)n1 [Compound 188, (S)—N-(4-amino-3,4-dioxo-1-phenylbutan-2-yl)-1-methyl-3-(pyridin-3-yl)-1H-pyrazole-4-carboxamide]
8 | < 10 µM | < 3 µM | 10 to 25 µM | < 3 µM | < 3 µM | – | – | – | – | – | O=CC(Cc1ccccc1)NC(=O)c1cn(C(F)F)nc1-c1ccccc1 (stereo not drawn) [Compound 396, 1-(difluoromethyl)-N-(1-oxo-3-phenylpropan-2-yl)-3-phenyl-1H-pyrazole-4-carboxamide]
9 | – | – | – | – | – | > 25 µM | < 3 µM | > 25 µM | < 3 µM | < 3 µM | NC(=O)C(=O)[C@H](Cc1ccccc1)NC(=O)c1cncn1-c1ccccn1 [Compound 24, (S)—N-(4-amino-3,4-dioxo-1-phenylbutan-2-yl)-1-(pyridin-2-yl)-1H-imidazole-5-carboxamide]
10 | – | – | – | – | – | 10 to 25 µM | < 3 µM | > 25 µM | < 3 µM | < 3 µM | Cc1cnn(-c2ccccc2)c1C(=O)N[C@@H](Cc1ccccc1)C(=O)C(N)=O [Compound 223, (S)—N-(4-amino-3,4-dioxo-1-phenylbutan-2-yl)-4-methyl-1-phenyl-1H-pyrazole-5-carboxamide]
11 | 10 to 25 µM | < 3 µM | 10 to 25 µM | < 3 µM | < 3 µM | – | – | – | – | – | Cn1cc(C(=O)NC(Cc2ccccc2)C(=O)C(N)=O)c(-c2cccc(F)c2F)n1 (stereo not drawn) [Compound 480, N-(4-amino-3,4-dioxo-1-phenylbutan-2-yl)-3-(2,3-difluorophenyl)-1-methyl-1H-pyrazole-4-carboxamide]
12 | – | – | – | – | – | 10 to 25 µM | < 3 µM | < 10 µM | < 3 µM | < 3 µM | Cc1cc(C(=O)N[C@@H](Cc2ccccc2)C(=O)C(N)=O)n(-c2cccc(CNC(=O)CCc3ccccc3)c2)n1 [Compound 142, (S)—N-(4-amino-3,4-dioxo-1-phenylbutan-2-yl)-3-methyl-1-(3-((3-phenylpropanamido)methyl)phenyl)-1H-pyrazole-5-carboxamide]
13 | < 10 µM | < 3 µM | > 25 µM | < 3 µM | < 3 µM | – | – | – | – | – | C#CCOCc1ccc(-c2nsnc2C(=O)N[C@@H](Cc2ccccc2)C(=O)CF)cc1 [Compound 362, (S)—N-(4-fluoro-3-oxo-1-phenylbutan-2-yl)-4-(4-((prop-2-yn-1-yloxy)methyl)phenyl)-1,2,5-thiadiazole-3-carboxamide]
14 | < 10 µM | < 3 µM | < 10 µM | < 3 µM | < 3 µM | – | – | – | – | – | NC(=O)C(=O)C(Cc1ccccc1)NC(=O)c1nsnc1-c1ccccc1F (stereo not drawn) [Compound 327, N-(4-amino-3,4-dioxo-1-phenylbutan-2-yl)-4-(2-fluorophenyl)-1,2,5-thiadiazole-3-carboxamide]
15 | 10 to 25 µM | < 3 µM | < 10 µM | < 3 µM | < 3 µM | – | – | – | – | – | Cc1nc(-c2ccccc2)c(C(=O)NC(Cc2ccccc2)C(=O)C(=O)NC2CC2)o1 (stereo not drawn) [Compound 459, N-(4-(cyclopropylamino)-3,4-dioxo-1-phenylbutan-2-yl)-2-methyl-4-phenyloxazole-5-carboxamide]
